# Source: patent US20220363689A1, “INHIBITOR OF BTK AND MUTANTS THEREOF” (Newave Pharmaceutical Inc., priority 2019, published 2022)
# Where two headings read alike, the source gives them in different places.
# How the values were obtained:
# [1] = test system: liver cancer cell line HepG2; assay: HepG2 in vitro liver toxicity assay (ATPlite); assay type: cell-based; settings: another experiment, about 72 hours incubation, read-out: HepG2 IC50 (another experiment)
# Protocol: Cell antiproliferation is assayed by PerkinElmer ATPlite™ Luminescence Assay System. Briefly, the liver cancer cell line HepG2 are plated at a density of about 1×10^4 cells per well in Costar 96-well plates, and are incubated with different concentrations of compounds for about 72 hours in medium supplemented with 5% FBS. One lyophilized substrate solution vial is then reconstituted by adding 5 mL of substrate buffer solution, and is agitated gently until the solution is homogeneous. About 50 μL of mammalian cell lysis solution is added to 100 μL of cell suspension per well of a microplate, and the plate is shaken for about five minutes in an orbital shaker at −700 rpm. This procedure is used to lyse the cells and to stabilize the ATP. Next, 50 μL substrate solution is added to the wells and microplate is shaken for five minutes in an orbital shaker at −700 rpm. Finally, the luminescence is measured by a PerkinElmer TopCount® Microplate Scintillation Counter. Such assays, carried out with a range of doses of test compounds, allow the determination of the cellular anti-antiproliferative IC50 of the compounds of the present invention.
# Mice PK study = assay type: in vivo; settings: plasma, CD-1 mouse, po, 25 mg/kg
# Protocol: The pharmacokinetics of compounds were evaluated in CD-1 mouse via Intravenous and Oral Administration. The IV dose was administered as a slow bolus in the Jugular vein, and oral doses were administered by gavage. The formulation for IV dosing is 5% DMSO in 20% HPBCD in water, and the PO formulation is 2.5% DMSO, 10% EtOH, 20% Cremphor EL, 67.5% D5W. The PK time point for the IV arm was 5, 15, 30 min, 1, 2, 4, 6, 8, 12, 24 hours post dose, and for PO arm was 15, 30 min, 1, 2, 4, 6, 8, 12, 24 hours post dose. Approximately 0.03 mL blood was collected at each time point. Blood of each sample was transferred into plastic micro centrifuge tubes containing EDTA-K2 and plasma was collected within 15 min by centrifugation at 4000 g for 5 minutes in a 4° C. centrifuge. Plasma samples were stored in polypropylene tubes. The samples were stored in a freezer at −75±15° C. prior to analysis. Concentrations of compounds in the plasma samples were analyzed using a LC-MS/MS method. WinNonlin (Phoenix™, version 6.1) or other similar software was used for pharmacokinetic calculations. The following pharmacokinetic parameters were calculated, whenever possible from the plasma concentration versus time data: IV administration: C0, CL, Vd, T1/2, AUCinf, AUClast, MRT, Number of Points for Regression; PO administration: Cmax, Tmax, T1/2, AUCinf, AUClast, F %, Number of Points for Regression. The pharmacokinetic data was described using descriptive statistics such as mean, standard deviation. Additional pharmacokinetic or statistical analysis was performed at the discretion of the contributing scientist, and was documented in the data summary. For comparison purpose, the PK results of oral dosing of po, 25 mg/kg of Acalbrutinib, a FDA approved BTK inhibitor, were obtained using the same methods and shown in the Table below.
# C4815S BTK enzyme = C4815S BTK enzyme (Homo sapiens, UniProt Q06187, C481S); assay: Reversibility of binding to C481S BTK enzyme; assay type: biochemical; settings: Cysteine residue not available for covalent binding
# Chain of C4815S BTK enzyme (Q06187 whole entry C481S): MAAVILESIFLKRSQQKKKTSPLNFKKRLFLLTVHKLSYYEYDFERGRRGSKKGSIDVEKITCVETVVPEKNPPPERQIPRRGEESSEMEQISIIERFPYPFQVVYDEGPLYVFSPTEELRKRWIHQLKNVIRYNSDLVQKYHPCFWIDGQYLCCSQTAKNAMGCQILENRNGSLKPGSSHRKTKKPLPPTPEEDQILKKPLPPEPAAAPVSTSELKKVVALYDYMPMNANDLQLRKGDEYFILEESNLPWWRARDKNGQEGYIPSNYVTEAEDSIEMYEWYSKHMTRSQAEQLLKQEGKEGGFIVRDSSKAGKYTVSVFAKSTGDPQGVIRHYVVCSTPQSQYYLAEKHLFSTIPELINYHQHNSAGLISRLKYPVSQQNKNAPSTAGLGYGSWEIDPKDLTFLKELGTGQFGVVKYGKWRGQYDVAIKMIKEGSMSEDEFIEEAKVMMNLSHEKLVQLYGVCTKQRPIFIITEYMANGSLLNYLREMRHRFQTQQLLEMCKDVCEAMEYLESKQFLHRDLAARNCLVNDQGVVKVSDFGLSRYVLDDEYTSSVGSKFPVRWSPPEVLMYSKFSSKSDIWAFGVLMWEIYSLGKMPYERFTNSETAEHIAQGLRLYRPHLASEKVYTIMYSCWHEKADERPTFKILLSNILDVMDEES
# WT BTK [2] = target: T1, WT BTK (Homo sapiens, UniProt Q06187); assay: In vitro dialysis assay (irreversibility assay), WT BTK; assay type: biochemical; settings: reversible or irreversible/covalent inhibition after 24 h dialysis
# T1 sequence (Q06187 whole entry): as the sequence (Q06187 whole entry C481S) above, with S481C counted along it
# Protocol: The compound-enzyme complex was dialyzed against the same buffer supplemented with 40 mM ATP for 24 hr. Cumulative dialysis factor>160,000×. After dialysis, the BTK activity was measured in the presence […] and 1 mM substrate peptide and compared to that in non-dialyzed samples. Assay buffer: 100 mM HEPES, pH7.5; […]; 5 mM MgCl2; 1 mM DTT. In this study, Ibrutiib (a FDA approved irreversible BTK inhibitor) was used as a positive control and Saurosporine (a reversible BTK inhibitor) was used as a negative control.
# C481S Btk = C481S Btk (Homo sapiens, UniProt Q06187, C481S); assay: Caliper-based kinase assay, C481S BTK; assay type: biochemical; settings: 0.5 nM enzyme, ATP 16 μM, room temperature 3 h; read-out: C481S BTK IC50 (nM) (reversible inhibition)
# Chain of C481S Btk (Q06187 whole entry C481S): as the sequence (Q06187 whole entry C481S) above
# Protocol: (§1) A Caliper-based kinase assay (Caliper Life Sciences, Hopkinton, Mass.) was used to measure inhibition of WT and […] Btk kinase activity of a compound of the present disclosure. […] The reaction was then terminated with EDTA, final concentration 20 mM and the phosphorylated reaction product was quantified on a Caliper Desktop Profiler (Caliper LabChip 3000).
# WT BTK [3] = target: T1, WT BTK; assay: Caliper-based kinase assay, WT BTK; assay type: biochemical; settings: 0.5 nM enzyme, ATP 16 μM, room temperature 3 h; read-out: WT BTK IC50 (nM) (irreversible inhibition)
# Protocol: as §1
# [4] = test system: basophil activation, B cell receptor activation, and constitutive p-BTK activity in whole blood lysates; settings: read-out: IC50s for basophil activation, B cell receptor activation, and constitutive p-BTK activity; cited from earlier work
# [5] = dogs, even at higher doses; cited from earlier work
# [6] = mice, even at higher doses; cited from earlier work
# [7] = rats, treatment for longer than 7 days; cited from earlier work
# [8] = Phase I clinical trials, formulations containing GDC-0853; cited from earlier work
Compound,Conclusion (WT BTK) (WT BTK [2]),IC50 (C481S Btk) [nM],IC50 (WT BTK [3]) [nM],further results
"CC#CC(=O)N1CCC[C@H]1c1nc(-c2ccc(C(=O)Nc3ccccn3)cc2)c2c(N)nccn12 [Acalabrutinib, reference compound]",,,,"IC50 ([1]; Homo sapiens, HepG2): > 40000 nM; AUC (Mice PK study): 1450 ng·h/mL; half-life (Mice PK study; read-out: t ½ (converted)): 1.1 h"
"C=CC(=O)Nc1cc(Nc2nc(-c3ccnc(N4CCn5c(cc6c5CC(C)(C)C6)C4=O)c3CO)cn(C)c2=O)ccc1N1CCN(C)CC1 [Example 2, N-(5-((6-(2-(7,7-dimethyl-1-oxo-1,3,4,6,7,8-hexahydro-2H-cyclopenta[4,5]pyrrolo[1,2-a]pyrazin-2-yl)-3-(hydroxymethyl)pyridin-4-yl)-4-methyl-3-oxo-3,4-dihydropyrazin-2-yl)amino)-2-(4-methylpiperazin-1-yl)phenyl)acrylamide]",irreversible/covalent inhibition,,,Mode of binding to C481S BTK (C4815S BTK enzyme): reversibly bind
C=CC(=O)Nc1cc(Nc2nc(-c3ccnc(N4CCn5c(cc6c5CC(C)(C)C6)C4=O)c3CO)cn(C)c2=O)ccc1C1C(=O)N(C)CCN1C1COC1 (centres unmarked) [Example 41],Irreversible/covalent inhibition,0.61,0.27,
"C=CC(=O)Nc1cc(Nc2nc(-c3ccnc(N4CCn5c(cc6c5CC(C)(C)C6)C4=O)c3CO)cn(C)c2=O)ccc1C1CN(C2COC2)CC(=O)N1C (centres unmarked) [Example 42, N-(5-[[6-(2-[4,4-dimethyl-9-oxo-1,10-diazatricyclo[6.4.0.0^[2,6]]dodeca-2(6),7-dien-10-yl]-3-(hydroxymethyl)pyri-din-4-yl)-4-methyl-3-oxopyrazin-2-yl]amino]-2-[1-methyl-4-(oxetan-3-yl)-6-oxopiperazin-2-yl]phenyl)prop-2-enamide]",Irreversible/covalent inhibition,0.3,0.24,
C=CC(=O)Nc1cc(Nc2nc(-c3ccnc(N4CCn5c(cc6c5CC(C)(C)C6)C4=O)c3CO)cn(C)c2=O)ccc1C1CN(C)C(=O)CN1C1COC1 (centres unmarked) [Example 43],Irreversible/covalent inhibition,0.5,0.35,
"C=CC(=O)Nc1cc(Nc2nc(-c3ccnc(N4CCc5c(sc6c5CCCC6)C4=O)c3CO)cn(C)c2=O)ccc1N1CCN(C2CCOCC2)C[C@@H]1C [Example 56, N-[5-([6-[3-(hydroxymethyl)-2-[6-oxo-8-thia-5-azatricyclo[7.4.0.0^[2,7]]trideca-1(9), 2(7)-dien-5-yl]pyridin-4-yl]-4-methyl-3-oxopyrazin-2-yl]amino)-2-[(2S)-2-methyl-4-(oxan-4-yl)piperazin-1-yl]phenyl]prop-2-enamide]",Irreversible/covalent inhibition,,0.058,IC50 [1]: 26000 nM
C[C@H]1CN(C2COC2)CCN1c1ccc(Nc2cc(-c3ccnc(N4CCn5c(cc6c5CC(C)(C)C6)C4=O)c3CO)cn(C)c2=O)nc1 [GDC-0853],Reversible,,,IC50 [4]: 2 to 9 nM; Pancreatic toxicity [5]: does not occur; Pancreatic toxicity [6]: does not occur; Pancreatic toxicity [7]: pancreatic toxicity; Tolerability [8]: well-tolerated
